# ChEMBL document CHEMBL5291721, “A preclinical secondary pharmacology resource illuminates target-adverse drug reaction associations of marketed drugs” (Nat Commun, 2023)
# How the values were obtained:
# Adenosine receptor A3 [1] = target: T1, Adenosine receptor A3 (Homo sapiens, UniProt P0DMS8)
# T1 sequence (P0DMS8 whole entry): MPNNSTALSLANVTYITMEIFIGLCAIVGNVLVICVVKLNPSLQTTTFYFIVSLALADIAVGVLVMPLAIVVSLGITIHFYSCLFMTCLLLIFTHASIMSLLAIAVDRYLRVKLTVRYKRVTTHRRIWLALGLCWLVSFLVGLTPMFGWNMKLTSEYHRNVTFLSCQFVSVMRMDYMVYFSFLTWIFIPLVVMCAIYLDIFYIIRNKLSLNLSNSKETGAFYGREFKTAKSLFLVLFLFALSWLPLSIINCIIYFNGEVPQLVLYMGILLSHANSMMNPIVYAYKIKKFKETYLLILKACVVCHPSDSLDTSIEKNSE
# [2] = target: Delta-type opioid receptor (Homo sapiens, UniProt P41143)
# [3] = target: T2, Amine oxidase [flavin-containing] A (Homo sapiens, UniProt P21397); format: functional
# T2 sequence (P21397 whole entry): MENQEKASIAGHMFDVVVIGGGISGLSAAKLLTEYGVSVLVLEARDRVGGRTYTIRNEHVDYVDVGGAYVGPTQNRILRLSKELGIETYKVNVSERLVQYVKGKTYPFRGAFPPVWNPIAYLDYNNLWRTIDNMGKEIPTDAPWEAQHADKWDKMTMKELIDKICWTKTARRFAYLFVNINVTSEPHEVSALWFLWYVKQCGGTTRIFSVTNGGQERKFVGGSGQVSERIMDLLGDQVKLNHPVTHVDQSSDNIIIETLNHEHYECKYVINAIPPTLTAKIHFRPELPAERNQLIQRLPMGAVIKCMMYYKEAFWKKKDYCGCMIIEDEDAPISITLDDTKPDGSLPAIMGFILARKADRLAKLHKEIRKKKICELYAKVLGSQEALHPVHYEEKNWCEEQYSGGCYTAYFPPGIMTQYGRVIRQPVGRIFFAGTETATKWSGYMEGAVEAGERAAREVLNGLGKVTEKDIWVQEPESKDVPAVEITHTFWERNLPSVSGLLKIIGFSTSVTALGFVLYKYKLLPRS
# Adenosine receptor A3 [4] = target: T1, Adenosine receptor A3; remark: listed apart in the source
# [5] = target: Glutamate receptor ionotropic, NMDA 1 (Rattus norvegicus, UniProt P35439)
# Progesterone receptor = target: T3, Progesterone receptor (Homo sapiens, UniProt P06401); format: functional
# T3 sequence (P06401 whole entry): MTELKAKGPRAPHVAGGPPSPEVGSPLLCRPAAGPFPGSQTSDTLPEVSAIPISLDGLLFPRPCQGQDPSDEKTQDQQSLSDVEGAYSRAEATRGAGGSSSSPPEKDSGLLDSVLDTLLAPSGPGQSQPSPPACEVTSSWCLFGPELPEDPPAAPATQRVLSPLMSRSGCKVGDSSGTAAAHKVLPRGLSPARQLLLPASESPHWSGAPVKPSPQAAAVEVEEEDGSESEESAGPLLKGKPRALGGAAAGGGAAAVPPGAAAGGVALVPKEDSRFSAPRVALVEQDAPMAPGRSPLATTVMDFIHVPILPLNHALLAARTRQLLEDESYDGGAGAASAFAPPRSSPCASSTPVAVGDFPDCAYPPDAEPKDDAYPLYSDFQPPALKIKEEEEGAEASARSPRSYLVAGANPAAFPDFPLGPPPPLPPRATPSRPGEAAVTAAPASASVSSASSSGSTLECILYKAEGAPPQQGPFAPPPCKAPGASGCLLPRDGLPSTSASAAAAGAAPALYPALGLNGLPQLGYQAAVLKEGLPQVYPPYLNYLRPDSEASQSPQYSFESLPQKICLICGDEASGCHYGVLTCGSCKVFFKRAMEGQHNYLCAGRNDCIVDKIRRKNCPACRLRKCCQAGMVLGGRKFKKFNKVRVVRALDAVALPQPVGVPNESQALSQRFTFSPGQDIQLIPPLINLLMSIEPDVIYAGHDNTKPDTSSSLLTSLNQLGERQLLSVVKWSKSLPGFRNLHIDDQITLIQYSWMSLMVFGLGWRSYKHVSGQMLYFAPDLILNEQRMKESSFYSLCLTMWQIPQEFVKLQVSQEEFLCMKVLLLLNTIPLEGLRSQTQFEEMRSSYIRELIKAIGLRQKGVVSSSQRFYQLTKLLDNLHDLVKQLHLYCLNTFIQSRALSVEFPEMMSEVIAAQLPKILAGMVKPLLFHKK
# [6] = target: T4, 5-hydroxytryptamine receptor 2B (Homo sapiens, UniProt P41595); format: functional, cell-based
# Melanocortin receptor 3 = Melanocortin receptor 3 (Homo sapiens, UniProt P41968)
# Adenosine receptor A1 = target: T5, Adenosine receptor A1 (Homo sapiens, UniProt P30542)
# T5 sequence (P30542 whole entry): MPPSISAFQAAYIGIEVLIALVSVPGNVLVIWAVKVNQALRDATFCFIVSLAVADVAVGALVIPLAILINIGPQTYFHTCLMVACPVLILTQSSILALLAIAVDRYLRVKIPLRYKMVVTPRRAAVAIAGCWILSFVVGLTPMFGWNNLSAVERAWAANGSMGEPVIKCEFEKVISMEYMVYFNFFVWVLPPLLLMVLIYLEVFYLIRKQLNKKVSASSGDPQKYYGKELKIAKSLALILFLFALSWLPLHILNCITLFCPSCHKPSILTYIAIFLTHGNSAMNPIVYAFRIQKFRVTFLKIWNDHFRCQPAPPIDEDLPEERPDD
# [7] = target: T4, 5-hydroxytryptamine receptor 2B; format: functional, cell-based; remark: listed apart in the source
# Note: assay procedure not described here.
# Delta-type opioid receptor, sequence (P41143 whole entry): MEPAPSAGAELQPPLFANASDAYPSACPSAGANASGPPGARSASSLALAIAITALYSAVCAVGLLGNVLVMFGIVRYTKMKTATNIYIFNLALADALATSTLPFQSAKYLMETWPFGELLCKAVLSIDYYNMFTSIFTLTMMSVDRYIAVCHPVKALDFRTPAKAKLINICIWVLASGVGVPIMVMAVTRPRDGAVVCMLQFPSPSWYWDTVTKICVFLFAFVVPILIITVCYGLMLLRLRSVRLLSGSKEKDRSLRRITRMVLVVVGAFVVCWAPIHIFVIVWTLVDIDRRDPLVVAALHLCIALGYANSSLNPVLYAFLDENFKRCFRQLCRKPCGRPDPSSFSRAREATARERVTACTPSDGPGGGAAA
# Melanocortin receptor 3, sequence (P41968 whole entry): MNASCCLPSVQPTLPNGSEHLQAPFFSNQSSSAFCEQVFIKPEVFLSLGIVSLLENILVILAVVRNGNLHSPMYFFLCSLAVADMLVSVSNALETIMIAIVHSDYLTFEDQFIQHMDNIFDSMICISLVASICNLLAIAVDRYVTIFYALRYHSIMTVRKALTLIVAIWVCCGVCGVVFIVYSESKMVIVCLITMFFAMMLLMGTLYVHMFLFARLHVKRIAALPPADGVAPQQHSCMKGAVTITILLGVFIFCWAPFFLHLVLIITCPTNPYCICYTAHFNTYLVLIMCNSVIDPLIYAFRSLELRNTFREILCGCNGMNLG
# T4 sequence (P41595 whole entry): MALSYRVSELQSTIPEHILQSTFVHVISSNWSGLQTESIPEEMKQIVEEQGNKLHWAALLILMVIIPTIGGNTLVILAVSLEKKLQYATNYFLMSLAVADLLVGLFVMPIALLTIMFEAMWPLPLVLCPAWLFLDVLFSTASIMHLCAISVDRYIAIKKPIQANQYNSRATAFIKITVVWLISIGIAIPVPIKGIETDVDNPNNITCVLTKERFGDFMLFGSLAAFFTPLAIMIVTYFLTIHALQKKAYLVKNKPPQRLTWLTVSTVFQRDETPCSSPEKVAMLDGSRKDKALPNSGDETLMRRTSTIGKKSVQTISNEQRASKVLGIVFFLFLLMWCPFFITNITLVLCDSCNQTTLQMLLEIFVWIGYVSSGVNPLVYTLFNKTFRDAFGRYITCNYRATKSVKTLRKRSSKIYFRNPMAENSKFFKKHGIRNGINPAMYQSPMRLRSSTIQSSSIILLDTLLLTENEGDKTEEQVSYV
Compound,AC50 (Adenosine receptor A3 [1]) [µM],AC50 [2] [µM],AC50 [3] [µM],AC50 (Adenosine receptor A3 [4]) [µM],AC50 [5] [µM],AC50 (Progesterone receptor) [µM],AC50 (Melanocortin receptor 3) [µM],AC50 (Adenosine receptor A1) [µM],further results
CCCCC(CC)CN1CN(CC(CC)CCCC)CC(C)(N)C1 (stereo not given) [HEXETIDINE],10.8,–,–,–,–,–,–,–,–
Cc1cc(=O)oc2cc(O)ccc12 [HYMECROMONE],> 30,–,–,–,–,–,–,–,–
CCCCCCCN(CC)CCCC(O)c1ccc(NS(C)(=O)=O)cc1 (stereo not given) [IBUTILIDE],–,> 30,> 30,> 30,> 30,> 30,> 30,> 30,AC50 [6]: > 30 µM; AC50 [7]: > 30 µM
COc1c2occc2c(OC)c2c(=O)cc(C)oc12 [KHELLIN],> 30,–,–,–,–,–,–,–,–
CC(C)[C@@H]1CC[C@@H](C)C[C@H]1O [LEVOMENTHOL],> 30,–,–,–,–,–,–,–,–
COC(=O)[C@@H](N)Cc1ccc(O)c(O)c1 [MELEVODOPA],> 30,–,–,–,–,–,–,–,–
C[N+]1(C)CCCC(OC(=O)C(O)(c2ccccc2)c2ccccc2)C1 (stereo not given) [MEPENZOLATE],> 30,–,–,–,–,–,–,–,–
C=N[C@@H](C(=O)N[C@@H]1C(=O)N2[C@@H]1SC(C)(C)[C@@H]2C(=O)O)c1ccccc1 [METAMPICILLIN],> 30,–,–,–,–,–,–,–,–
O=C(NNCS(=O)(=O)O)c1ccncc1 [METHANIAZIDE],> 30,–,–,–,–,–,–,–,–
Cc1cc(=O)[nH]c(=S)[nH]1 [METHYLTHIOURACIL],> 30,–,–,–,–,–,–,–,–
CN(C)c1ccc(O)c2c1C[C@H]1C[C@H]3[C@H](N(C)C)C(O)=C(C(N)=O)C(=O)[C@@]3(O)C(O)=C1C2=O [MINOCYCLINE],> 30,–,–,–,–,–,–,–,–
CCNC(=O)/C=C(C)/C=C/C=C(C)/C=C/c1c(C)cc(OC)c(C)c1C [MOTRETINIDE],2.24,–,–,–,–,–,–,–,–
CNC(=C[N+](=O)[O-])NCCSCc1csc(CN(C)C)n1 [NIZATIDINE],–,> 30,> 10,> 10,> 10,> 10,> 10,> 10,AC50 [6]: > 10 µM; AC50 [7]: > 10 µM
C=CC(=O)Nc1cccc(Oc2nc(Nc3ccc(N4CCN(C)CC4)cc3)nc3ccsc23)c1 [OLMUTINIB],0.003,–,–,–,–,–,–,–,–
COc1ccc2[nH]c([S+]([O-])Cc3ncc(C)c(OC)c3C)nc2c1 (stereo not given) [OMEPRAZOLE],2.88,–,–,–,–,–,–,–,–
CCCc1cc(=O)[nH]c(=S)[nH]1 [PROPYLTHIOURACIL],–,> 30,> 10,> 10,> 10,> 10,> 10,> 10,AC50 [6]: > 10 µM; AC50 [7]: > 10 µM
Cn1cc(C(=O)[C@@H]2CCc3nc[nH]c3C2)c2ccccc21 [RAMOSETRON],–,> 30,> 30,> 30,> 30,> 30,> 30,> 30,AC50 [6]: > 30 µM; AC50 [7]: 20 µM
CN(CCOc1ccc(CC2SC(=O)NC2=O)cc1)c1ccccn1 (stereo not given) [ROSIGLITAZONE],–,> 30,8,> 30,> 30,> 30,20.8,> 30,AC50 [6]: > 30 µM; AC50 [7]: 14 µM
COc1cc(C(=O)NS(=O)(=O)c2ccccc2C)ccc1Cc1cn(C)c2ccc(NC(=O)OC3CCCC3)cc12 [ZAFIRLUKAST],–,> 30,> 10,11.4,> 10,> 30,> 10,> 30,–
